Where two headings read alike, the source gives them in different places.
Assays:
[1] = tested on: W2 apoptotic competent and D3 apoptotic deficient mouse epithelial cell lines; assay: apoptosis induction assay (MTT, W2 vs D3 cells); type: cell-based; settings: 48 h
From the text: However, the antiproliferative activity of different artemisinin isomers has never been studied in the past. […] To address this subject, we performed an apoptosis induction assay with compound 2 in order to evaluate the effect of the change in configurations on this activity. To develop a cell-based assay specific for the identification of apoptosis-inducing compounds that are potential antiproliferative agents, we used two genetically engineered mouse epithitial cell lines: W2 apoptotic competent and D3 apoptotic deficient. Compounds that have the capacity to kill W2 and not D3 cells are consistent with proapoptotic, potentially antiproliferative activity. Compounds that meet these criteria activate apoptosis upstream in a pathway that requires Bax and Bak. […]
Apoptosis induction in the presence of compound 2 was carried out as follows. […] Cell viability was determined using a modification of the MTT assay, where the reduction of yellow tertazolium salt (MTT-3-(4,5-Dimethylthiazol-2-yl)-2,5) to purple formazan indicates mitochondrial activity, and thus cell viability. […] After 30 min incubation at 37 °C with shaking, absorbance was read at 570 nm on a Spectra MAX 250 (Molecular Devices) plate reader. Differential growth from time 0 to 48 h was calculated. […]

[2] = tested on: SARS-CoV-2; assay: microbe, parasite or virus in culture; type: cell-based; settings: Vero E6 cells; for EC50: MOI 0.01, 24 h post infection, read-out: EC50, SARS-CoV-2 inhibitory assay
[3] = tested on: haem polymerization; assay: haem polymerization inhibitory activity (HPIA) assay; type: biochemical; settings: haematin, pH 2.6, 37 °C, 24 h; read-out: IC50, inhibition of haem polymerization formation
Protocol: Antimalarial activity was tested to (−)-6-epi-artemisinin (2) based on inhibition of haem polymerization. Haem is a by-product of haemoglobin digestion […]. It is potentially toxic to biological membranes and parasite enzymes, and it is thus sequestered in the form of an insoluble crystalline polymer, haemozoin or malaria pigment. Identifying molecules that interfere with haem polymerization is the basic principle of the assay. Haem can be polymerized in vitro, in the absence of proteins, from a solution of haematin at 70 °C or 37 °C at acidic pH. In vitro quantification of haem polymerization allows the identification of molecules with haem polymerization inhibitory activity (HPIA) and the assessment of their HPIA, relative to that of standard antimalarials like chloroquine.
100 microliters of a 0.5 mM solution of haematin, previously dissolved in 0.1 M NaOH, was distributed in 96-well U-bottomed microplates. […] The DMSO-soluble fraction (fraction II) was collected, and the pellet, consisting of a pure precipitate of haematin, was dissolved in 0.1 M NaOH (fraction III) for spectroscopic quantification. […] The amount of haematin was determined by measuring the absorbance at 405 nm using a microtiter plate reader. […]
Statistical analysis. […] Data were analyzed by Excel Microsoft. […]

[4] = tested on: Vero E6 cells; settings: read-out: CC50, cytotoxicity against Vero E6 cells; CCK8
[5] = in vitro; settings: African green monkey, CC50, cytotoxicity against Vero E6 cells, CCK8
[6] = tested on: SARS-CoV-2; design: method as in PMID 32786284; settings: read-out: EC50, inhibitory effect on SARS-CoV-2; cited from earlier work
[7] = tested on: MCF breast cancer cells; settings: read-out: IC50, antiproliferative activity, cited from earlier work

## CC1CCC2C(C)C(=O)OC3OC4(C)CCC1C32OO4 (single isomer, unassigned; (-)) [compound 2, (−)-6-epi-artemisinin]
[1]; Mus musculus, Epithelial cell, read-out: IC50, induction of apoptosis, W2/D3 cells, 48 h, MTT
  IC50: 10 µM
[1]; read-out: IC50, induction of apoptosis, W2/D3 cells, MTT
  IC50: 11 ± 0.71 µM
[2]; Severe acute respiratory syndrome coronavirus 2, Vero C1008, 24 h
  EC50: 49 ± 0.32 µM
[2]
  inhibition of growth of SARS-CoV-2 (in words): inhibited the growth of SARS-CoV-2
[3]
  IC50: 0.0035 ± 2e-06 µM
[4]
  CC50: > 250 µM
[5]
  CC50: > 200 µM

## CCN(CC)CCCC(C)Nc1ccnc2cc(Cl)ccc12 (stereo not drawn) [chloroquine, reference compound]
[3]
  IC50: 0.018 ± 1e-06 µM

## C[C@@H]1CC[C@H]2[C@@H](C)C(=O)O[C@@H]3O[C@@]4(C)CC[C@@H]1[C@]32OO4 [compound 1, (+)-artemisinin]
[2]
  inhibition of growth of SARS-CoV-2 (in words): inhibited the growth of SARS-CoV-2
[6]
  EC50: 64 µM
[7]; MCF breast cancer cells
  IC50: 9.13 ± 0.07 µM

## CC1CCC2C(C)C(=O)OC3OC4(C)CCC1C32OO4 (stereo not drawn) [compound 3, 9 epimer of 2]
[2]
  inhibition of growth of SARS-CoV-2 (in words): inhibited the growth of SARS-CoV-2
  EC50: 54 ± 0.27 µM
[4]
  CC50: > 200 µM

## C[C@H]1[C@@H](O)O[C@@H]2O[C@@]3(C)CC[C@H]4[C@H](C)CC[C@@H]1[C@@]24OO3 [dihydroartemisinin]
[7]; these same cells (MCF)
  IC50: 5.27 ± 0.01 µM

Reference: article PMC8472513, “(−)-6-epi-Artemisinin, a Natural Stereoisomer of (+)-Artemisinin in the Opposite Enantiomeric Series, from the Endemic Madagascar Plant Saldinia proboscidea, an Atypical Source” (Molecules, 2021)
